Counter-ions that a name gives are not always drawn.

As a reminder, the EC50 is the concentration giving half of the maximal effect.

T1 sequence (Q13639 1-387 isoform Q13639-2): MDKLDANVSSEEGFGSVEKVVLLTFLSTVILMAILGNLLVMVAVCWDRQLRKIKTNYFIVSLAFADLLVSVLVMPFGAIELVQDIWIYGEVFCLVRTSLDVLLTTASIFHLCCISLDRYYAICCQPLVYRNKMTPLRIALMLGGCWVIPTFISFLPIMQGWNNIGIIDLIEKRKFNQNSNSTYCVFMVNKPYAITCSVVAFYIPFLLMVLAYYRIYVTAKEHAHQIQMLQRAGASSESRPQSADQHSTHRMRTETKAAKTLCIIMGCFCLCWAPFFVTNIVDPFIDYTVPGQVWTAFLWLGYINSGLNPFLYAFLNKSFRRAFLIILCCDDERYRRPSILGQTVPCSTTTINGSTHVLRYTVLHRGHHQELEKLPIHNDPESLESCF

This assay has as its target T1, human 5-HT4(a) (Homo sapiens, UniProt Q13639).
T1 construct: host or cells: GeneBIAzer HTR4-CRE-bla CHO-K1 cells
Briefly: Evaluation of agonistic activity in CHO-K1 cells expressing human 5-HT4(a) (GeneBIAzer HTR4-CRE-bla CHO-K1 cells, beta-lactamase fluorescence ratio, EC50 from 8 concentrations). The class given is cell-based. An outline of the steps: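 HTR4-CRE-bla CHO-K1 cells (10^4 per well, overnight in 1% FBS medium) exposed to compound for 5 h, then beta-lactamase substrate 2 h in the dark. Fluorescence ratio at 465/535 nm after 410 nm excitation; EC50 by non-linear regression over 8 concentrations.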
As for `CCCCc1cc(N2CCC[C@@H](NC)C2)nc(Nc2ccc(C)c(C(F)(F)F)c2)n1` [Example 332, (R)-4-butyl-N-[4-methyl-3-(trifluoromethyl)phenyl]-6-[3-(methylamino)piperidin-1-yl]pyrimidin-2-amine], the concentration giving a half-maximal response (EC50) amounted to 0.017 nM.

With `CCCCc1cc(N2CCC[C@@H](NC)C2)nc(Nc2ccc(OC)c(N)c2)n1` [Example 333, (R)—N^1-{4-butyl-6-[3-(methylamino)piperidin-1-yl]pyrimidin-2-yl}-4-methoxybenzene-1,3-diamine], the EC50 came to 0.132 nM.

For the molecule `CCCCc1cc(N2CCC[C@@H](N)C2)nc(Nc2ccc(N)c([N+](=O)[O-])c2)n1` [Example 337, (R)—N^1-[4-(3-aminopiperidin-1-yl)-6-butylpyrimidin-2-yl]-3-nitrobenzene-1,4-diamine dihydrochloride], the EC50 worked out at 0.006 nM.

As to `CCCCc1cc(N2CCC[C@@H](N)C2)nc(Nc2ccc(F)c([N+](=O)[O-])c2)n1` [Example 338, (R)-4-(3-aminopiperidin-1-yl)-6-butyl-N-(4-fluoro-3-nitrophenyl)pyrimidin-2-amine], the EC50 amounted to 0.014 nM.

Regarding `CCCCc1cc(N2CCC[C@@H](N)C2)nc(Nc2ccc(C)c([N+](=O)[O-])c2)n1` [Example 339, (R)-4-(3-aminopiperidin-1-yl)-6-butyl-N-(4-methyl-3-nitrophenyl)pyrimidin-2-amine], the EC50 amounted to 0.017 nM.

Turning to `CCCCc1cc(N2CCC[C@@H](N)C2)nc(Nc2ccc(N)c(C(F)(F)F)c2)n1` [Example 340, (R)—N^1-[4-(3-aminopiperidin-1-yl)-6-butylpyrimidin-2-yl]-3-(trifluoromethyl)benzene-1,4-diamine], the EC50 was found to be 0.112 nM.

For `CCCCc1cc(N2CCC[C@@H](N)C2)nc(Nc2cc(N)cc(C#N)c2)n1` [Example 342, (R)-3-amino-5-{[4-(3-aminopiperidin-1-yl)-6-butylpyrimidin-2-yl]amino}benzonitrile], the EC50 was 0.0041 nM.

On to `CCCCc1cc(N2CCC[C@@H](N)C2)nc(Nc2ccc(C)c(C(F)(F)F)c2)n1` [Example 343, (R)-4-(3-aminopiperidin-1-yl)-6-butyl-N-[4-methyl-3-(trifluoromethyl)phenyl]pyrimidin-2-amine], for which the EC50 was 0.034 nM.

Regarding `CCCCc1cc(N2CCC[C@@H](N)C2)nc(Nc2ccc(C)c(F)c2)n1` [Example 344, (R)-4-(3-aminopiperidin-1-yl)-6-butyl-N-(3-fluoro-4-methylphenyl)pyrimidin-2-amine], the 50% effective concentration (EC50) was found to be 0.448 nM.

For the molecule `CCCCc1cc(N2CCC[C@@H](N)C2)nc(Nc2ccc(C)c(OC)c2)n1` [Example 345, (R)-4-(3-aminopiperidin-1-yl)-6-butyl-N-(3-methoxy-4-methylphenyl)pyrimidin-2-amine], the half-maximal effective concentration (EC50) came out at 0.08 nM.

With `CCCCc1cc(N2CCC[C@@H](N)C2)nc(Nc2ccc(C)c(N)c2)n1` [Example 346, (R)—N^1-[4-(3-aminopiperidin-1-yl)-6-butylpyrimidin-2-yl]-4-methylbenzene-1,3-diamine], the EC50 worked out at 0.135 nM.

Take `CCCCc1cc(N2CCC[C@@H](N)C2)nc(Nc2ccc(C)c(C)c2)n1` [Example 347, (R)-4-(3-aminopiperidin-1-yl)-6-butyl-N-(3,4-dimethylphenyl)pyrimidin-2-amine]: the 50% effective concentration (EC50) amounted to 0.391 nM.

Consider `CCCCc1cc(N2CCC[C@@H](N)C2)nc(Nc2ccc(F)c(C(F)(F)F)c2)n1` [Example 348, (R)-4-(3-aminopiperidin-1-yl)-6-butyl-N-[4-fluoro-3-(trifluoromethyl)phenyl]pyrimidin-2-amine], for which the EC50 was 0.102 nM.

Regarding `CCCCc1cc(N2CCC[C@@H](N)C2)nc(Nc2ccc(F)c(N)c2)n1` [Example 349, (R)—N^1-[4-(3-aminopiperidin-1-yl)-6-butylpyrimidin-2-yl]-4-fluorobenzene-1,3-diamine], the EC50 worked out at 0.014 nM.

`CCCCc1cc(N2CCC[C@@H](N)C2)nc(Nc2ccc(N)c(C#N)c2)n1` [Example 350, (R)-2-amino-5-{[4-(3-aminopiperidin-1-yl)-6-butylpyrimidin-2-yl]amino}benzonitrile]: the EC50 came out at 0.028 nM.

Turning to `CCCCc1cc(N2CCC[C@@H](N)C2)nc(Nc2ccc(N)cc2)n1` [Example 352, (R)—N^1-[4-(3-aminopiperidin-1-yl)-6-butylpyrimidin-2-yl]benzene-1,4-diamine], the concentration giving a half-maximal response (EC50) came to 0.029 nM.

On to `CCCCc1cc(N2CCC[C@@H](N)C2)nc(Nc2ccc(Cl)c([N+](=O)[O-])c2)n1` [Example 353, (R)-4-(3-aminopiperidin-1-yl)-6-butyl-N-(4-chloro-3-nitrophenyl)pyrimidin-2-amine], for which the 50% effective concentration (EC50) is 0.337 nM.

These data come from patent publication US9850227B2 (YUHAN CORPORATION, priority 2011, dated 2017).
